Reference: patent EP1878431B1, “MEDICINAL AGENT FOR PREVENTING PROGRESSION OF APOPTOTIC AND JUGULATING NECROTIC CHANGES IN THE ORGANISM TISSUES” (Obschestvo S Ogranichennoi Otvetstvennostyu …, priority 2005, dated 2006)
Marks after values point to notes of the source that are not given here.

Legend:
myocardium = assay: Myocardium ischemia (coronary artery ligation) with arterial hypertension: arrhythmia, ischemia and necrosis zones, myoglobin; assay type: in vivo, rats; conditions: for Arrhythmia duration / Ischemia zone, % of myocardium mass / Necrosis zone, % from ischemia zone / Necrosis zone, % from myocardium mass: 6 hours after bandaging
Protocol: (§1) The apoptosis activity was judged by poly-(ADP-ribose)-polymerase (key ferment of apoptotic cell loss), which was determined using Amersham Pharmacia Biotech test sets. The extent of necrotic cardiomyocites damage was estimated according to the quantity of myoglobin entry in the blood, in which the myoglobin content was measured spectrophotometrically.
(§2) Arterial hypertensia of normotensive rats was reproduced by imposing the ligature in the form of a titanic heliciform ring on a site of an aorta with the arteries of kidneys departing from it. The reached narrowing of an aortic lumen was 2/3 in diameter. Animals were operated on under anesthetic, in which their abdominal cavity was opened. The arterial pressure was measured by use of a gauge with a rubber cuff on the animal's tail. A signal from the gauge was recorded on a Mingograph EMT 118. On the 30th day after the operation, all of the animals were divided into two groups: in the first group the animal's left descending interventricular artery at its top third was ligated - the hard ischemia of a myocardium, and in the second group, an irreversible bilateral occlusion of the general carotids was reproduced with a silk thread (see example 9). […] Both groups of animals were euthanased on the 10th day after the operation. All of the investigated connections were introduced intravenously (this method of introduction was chosen to reflect the maximum effect of the medication) within 15 minutes after coronary artery bandaging. The developed means was also introduced intravenously in the form of an infusion in 5% glucose, or in tablet form with an oral administration, or in a kind of suppository.

[1] = tested on: poly-(ADP-ribose)-polymerase; assay: PARP activity during myocardium ischemia with arterial hypertension; assay type: in vivo, rats; conditions: no unit in table (b49 gives the norm in pkMole/mg of protein)
Protocol: as §1
as §2, with “All of the investigated connections were introduced intravenously (this method of introduction was chosen to reflect the maximum effect of the medication) within 15 minutes after coronary artery bandaging. The developed means was also introduced intravenously in the form of an infusion in 5% glucose, or in tablet form with an oral administration, or in a kind of suppository.” left out

[2] = tested on: low-resistant to hypoxia animals; assay: Acute hypobaric anoxia in combination with hypercapnia (lifting to 11,500 m): lifetime, loss of pose time, restitution time, stability factor; assay type: in vivo; conditions: for Stability factor: ratio of duration to restitution time
Protocol: (§3) Example 7. Acute hypobaric anoxia (as one of the most adequate methods of hypoxia study) in combination with hypercapnia was modeled by "lifting" low-resistant to hypoxia animals to a critical altitude of 11,500 m at a speed of 1,200 m/min. If at this altitude for more than 10 minutes, hypoxia modeling stopped, and the animals were considered conditionally "high-resistant", and animals that lived less than 10 minutes were considered conditionally "low-resistant". In the present study, only animals with low-resistance to hypoxia were used. During the second experiment of "lifting" animals in order to simulate hypobaric anoxia, in combination with hypercapnia, these parameters were recorded: loss of pose time (LPT), lifetime - time from the end of "lifting" until respiratory standstill or the first atonal inhalation occurrence, restitution time (RT) - from a respiratory standstill until active pose restoration after descending the animal. The hypoxia stability factor was calculated as a ratio of the duration to the restitution time, an increase of which means the growth of the organism's resistance to the occurrence of extreme oxygen deprivation.
(§4) The studied substances were injected intravenously (method that reflects the maximum effect of the medication) 15 minutes prior to the experiment. The designed medication was also injected intravenously in the form of an infusion or pills that were administered orally or a suppository.

[3] = tested on: poly-(ADP-ribose)-polymerase; assay: PARP activity in myocardium and brain at acute hypobaric hypoxia with hypercapnia; assay type: in vivo
Protocol: as §1, §3, §4

[4] = 100 mg/kg intravenously within 15 minutes after coronary artery bandaging
[5] = 100 mg/kg intravenously 15 minutes prior to the experiment
[6] = 1.0 mg/kg intravenously 15 minutes prior to the experiment
[7] = 10.0 mg/kg intravenously 15 minutes prior to the experiment
[8] = 50 mg/kg intravenously 15 minutes prior to the experiment
[9] = 500 mg/kg intravenously 15 minutes prior to the experiment
[10] = 75 mg/kg intravenously within 15 minutes after coronary artery bandaging

Compound: CCc1nc(C)ccc1O [3-hydroxy-6-methyl-2-ethylpyridine]
- Arrhythmia duration (myocardium; [4]): 58 ± 9 min
- Ischemia zone, % of myocardium mass (myocardium; [4]): 39±3 % of myocardium mass
- Necrosis zone, % from ischemia zone (myocardium; [4]): 67±3 % from ischemia zone
- Necrosis zone, % from myocardium mass (myocardium; [4]): 26±9 % from myocardium mass
- Myoglobin content after 8 hours (myocardium; [4]): 127±12 mcg/g dry solid matter
- PARP activity [1, 4]: 0,256± 0,032

Compound: NC(=S)N=C(N)N [hutimine]
- Duration [2, 5]: 986 ± 87 s
- Loss of Pose Time [2, 5]: 186 ± 32 s
- Restitution time [2, 5]: 685 ± 82 s
- Stability factor [2, 5]: 1.45±0.12
- PARP activity, % of control brain [3, 5]: 290±83 % of control
- PARP activity, % of control myocardium [3, 5]: 212±23 % of control

Compound: NC(=O)c1ccc[n+]([C@@H]2O[C@H](COP(=O)([O-])OP(=O)(O)OC[C@H]3O[C@@H](n4cnc5c(N)ncnc54)[C@H](O)[C@@H]3O)[C@@H](O)[C@H]2O)c1 [NAD, nicotine-amide-adenine-dinucleotide]
- Duration [2, 6]: 2034 ± 234 s
- Loss of Pose Time [2, 6]: 936 ± 79 s
- Restitution time [2, 6]: 1042 ± 44 s
- Stability factor [2, 6]: 1.95±0.25
- Duration [2, 7]: 2077 ± 109 s
- Loss of Pose Time [2, 7]: 1036 ± 91 s
- Restitution time [2, 7]: 1000 ± 82 s
- Stability factor [2, 7]: 2.08±0.22
- PARP activity, % of control myocardium [3, 6]: 100±29 % of control
- PARP activity, % of control myocardium [3, 7]: 103±24 % of control

Compound: O=C([O-])CCCO.[Li+] [Lithium oxybutyrate]
- Duration [2, 5]: 1345 ± 89 s
- Loss of Pose Time [2, 5]: 436+90** sec
- Restitution time [2, 5]: 885 ± 82 s
- Stability factor [2, 5]: 1.4±0.2
- PARP activity, % of control brain [3, 5]: 300±82 % of control
- PARP activity, % of control myocardium [3, 5]: 200±33 % of control

Compound: CCc1nc(C)ccc1O.O=C(O)CCC(=O)O [3-oxy-3-methyl-6-oxypyridine succinate]
- Duration [2, 8]: 778 ± 107 s
- Loss of Pose Time [2, 8]: 136 ± 22 s
- Restitution time [2, 8]: 680 ± 69 s
- Stability factor [2, 8]: 1.14±0.12
- Duration [2, 5]: 707 ± 145 s
- Loss of Pose Time [2, 5]: 156 ± 29 s
- Restitution time [2, 5]: 642 ± 69 s
- Stability factor [2, 5]: 1.10±0.13
- Duration [2, 9]: 784 ± 107 s
- Loss of Pose Time [2, 9]: 136 ± 39 s
- Restitution time [2, 9]: 690 ± 83 s
- Stability factor [2, 9]: 1.14±0.10
- PARP activity, % of control brain [3, 8]: 312±29 % of control
- PARP activity, % of control myocardium [3, 8]: 204±21 % of control
- PARP activity, % of control brain [3, 5]: 317±21 % of control
- PARP activity, % of control myocardium [3, 5]: 208±29 % of control
- PARP activity, % of control brain [3, 9]: 302±32 % of control
- PARP activity, % of control myocardium [3, 9]: 202±19 % of control

Compound: O=C(O)CCC(=O)O [succinic acid]
- Duration [2, 5]: 747 ± 90 s
- Loss of Pose Time [2, 5]: 121 ± 34 s
- Restitution time [2, 5]: 1042 ± 69 s
- Stability factor [2, 5]: 1.0±0.2
- PARP activity, % of control brain [3, 5]: 325±20 % of control
- PARP activity, % of control myocardium [3, 5]: 225±22 % of control

Compound: C[N+](C)(C)C[C@H](O)CC(=O)[O-] [L-carnitine]
- Arrhythmia duration (myocardium; [10]): 68 ± 8 min
- Ischemia zone, % of myocardium mass (myocardium; [10]): 40±3 % of myocardium mass
- Necrosis zone, % from ischemia zone (myocardium; [10]): 70±5 % from ischemia zone
- Necrosis zone, % from myocardium mass (myocardium; [10]): 28±9 % from myocardium mass
- Myoglobin content after 8 hours (myocardium; [10]): 132±10 mcg/g dry solid matter
- PARP activity [1, 10]: 0,406± 0,030

Compound: OC[C@H]1O[C@@H](n2cnc3c(O)ncnc32)[C@H](O)[C@@H]1O [inosine]
- Duration [2, 5]: 754 ± 30 s
- Loss of Pose Time [2, 5]: 186 ± 39 s
- Restitution time [2, 5]: 680 ± 69 s
- Stability factor [2, 5]: 1.16±0.16
- PARP activity, % of control brain [3, 5]: 242±24 % of control
- PARP activity, % of control myocardium [3, 5]: 192±23 % of control
